# In patent US20030232754A1, “Use of GLP-1 peptides” (priority 1996, published 2003):
# Where two headings read alike, the source gives them in different places. No end group written: not given here.
# How the values were obtained:
# Healthy human volunteers = experiment: Effect of iv infusion on satiety, hunger, fullness, appetite (visual analogue scale) and ad libitum energy intake in a double-blind crossover trial; assay type: in vivo
# Excerpt: Healthy human volunteers (20 subjects) were in a double-blind crossover trial given an iv infusion of 50 pmol/(kg·h) of GLP-1(7-36)amide or saline on separate, but otherwise identical experimental days. The infusion was started at 9.00 and lasted until 15.00. At 9.45 the subjects received a fixed amount of breakfast and at 14.15 they had lunch of an identical composition but ad libitum. The subjects rated their feeling of satiety, hunger, fullness and appetite on a visual analogue scale every half hour. The results are given below:
# The energy intake of each subjects was measured. The intakes were 3.9 MJ with GLP-1 and 4.3 MJ with Saline resulting in a p-value of 0.009.
# rats = details: cited from earlier work
# Mice [1] = experiment: Appetite suppression in mice: Complan consumption after subcutaneous injection (Example 4); assay type: in vivo; details: p<0.001
# Method: The test method was as described in Example 3 except that the mice were pre-exposed to formula milk (Complan®—a nutritionally complete infant milk substitute) for one day, then fasted one day. On the test day, consumption of Complan® was measured for each mouse during a 10 min period.
# Mice were tested for appetite suppression by subcutaneous injection of GLP-1(7-36)amide dissolved in phosphate buffered saline.
# Mice [2] = experiment: Appetite suppression in mice: sucrose consumption immediately after ip injection (Example 2); assay type: in vivo; details: mice fasted two days, ip 85 micrograms (3.4 mg/kg) in saline, tested immediately after injection, 10 minute period; p-value 0.002
# Method: Mice were deprived of their normal food for two days and given free access to a 20% sucrose solution on the first day of food deprivation. After the two day food deprivation period, the mice were injected intraperitoneally with 0.5 ml of a solution containing the test substance. Immediately after injection, individual mice were placed in one of eight 15 cm square test boxes with a stainless steel grid floor and a glass drinking tube which projected into the box. […] Consumption of the sucrose solution was measured over a 10 minute period by electronically recording the total amount of contact with the sucrose solution during the test session. The degree of appetite suppression produced by a given test substance was determined by statistical comparison of the mean duration of sucrose consumption by control (vehicle treated) mice with that of mice treated with a test substance. The degree of appetite suppression in a treated group of mice was expressed as percent difference between the test and control group's response duration means. […]
# [3] = iv infusion 50 pmol/(kg·h), 9.00 to 15.00, 20 healthy subjects, rated every half hour, p = 0.007
substance,measurement,setting,value
GLP-1(1-37),Energy intake,"Healthy human volunteers; ad libitum lunch during iv infusion 50 pmol/(kg·h), saline 4.3 MJ, p-value 0.009",3.9 mJ
same,Satiety (visual analogue scale rating) versus saline,"Healthy human volunteers; iv infusion 50 pmol/(kg·h), 9.00 to 15.00, 20 healthy subjects, rated every half hour, p = 0.006","GLP-1 > Saline, p = 0.006"
same,Appetite (visual analogue scale rating) versus saline,Healthy human volunteers; [3],"GLP-1 < Saline, p = 0.007"
same,Hunger (visual analogue scale rating) versus saline,Healthy human volunteers; [3],"GLP-1 < Saline, p = 0.007"
same,Fullness (visual analogue scale rating) versus saline,"Healthy human volunteers; iv infusion 50 pmol/(kg·h), 9.00 to 15.00, 20 healthy subjects, rated every half hour, p = 0.010","GLP-1 > Saline, p = 0.010"
same,Effect on food intake,"rats; intracerebroventricular administration, Tang-Christensen et al. 1996",profound effect
same,Effect on food intake,"rats; intracerebroventricular administration, Turton et al. 1996",profound effect
same,Effect on food intake,"rats; peripheral administration, Tang-Christensen et al. 1996",no significant effect
"GLP-1(1-36)amide (HDEFERHAEGTFTSDVSSYLEGQAAKEFIAWLVKGR-NH2; UniProt P01275 92-127, looked up, fragment) [fragment 1-36 of GLP-1 as C-terminal amide]",Effect on food intake,"rats; route not stated, Tang-Christensen et al. 1996",no effect
GLP-1(7-36)amide,Suppression of feeding (Complan consumption),"Mice [1]; 1 mg/kg, 30 min after injection",45%
same,"Maximum effect, suppression of feeding (Complan consumption)",Mice [1]; highest dose tested 20 mg/kg,60%
same,Suppression of sucrose consumption,Mice [2],60%
